Test results taken from patent publication US8735620B2, “Processes for preparing (E)-styrylbenzylsulfone compounds and uses thereof for treating proliferative disorders” (priority 2008, dated 2014).
Read-outs that look alike come from different tables or passages of the source.

Assays:
[1] = tested on: mantle cell lymphoma cell lines; conditions: Park et al Oncogene 2007; cited from earlier work
[2] = tested on: DLD1 (human colorectal tumor cell line); test: Cytotoxicity assay (trypan blue exclusion, 96 h), DLD1; assay type: cell-based
Text: (§2) Tissue Culture and Reagents: Paclitaxel was purchased from Sigma. Cell lines were purchased from ATCC. Cell lines were routinely grown in DMEM or RPM1 (CellGro) supplemented with 10% fetal bovine serum (Atlas) and 1 unit/mL penicillin-streptomycin (Gibco).

[3] = tested on: H157 (human lung tumor cell line); test: Cytotoxicity assay (trypan blue exclusion, 96 h), H157; assay type: cell-based
Text: as §2

Namalwa = test: Tumor cell killing, Namalwa; assay type: cell-based, human; conditions: Burkitt's Lymphoma (B-cell), read-out: Tumor cell killing (IC50) concentration
CEM/C2 = test: Tumor cell killing, CEM/C2 (camptothecin-resistant subline); assay type: cell-based, human; conditions: *CEM/C2, RESISTANT LEUKEMIC (multi-drug resistant); read-out: Tumor cell killing (IC50) concentration
MES-SA/DX5 = test: Tumor cell killing, MES-SA/DX5 (multidrug resistant subline); assay type: cell-based, human; conditions: for IC50: *MESSA/DX5, RESISTANT SARCOMA (multi-drug resistant), read-out: Tumor cell killing (IC50) concentration
Protocol: (§1) A. 6aa inhibits the growth of parental (MES-SA) and Paclitaxel resistant (MES-SA/DX5) cell lines with equal efficiency. The parental uterine sarcoma cells and the MDR positive (MES-SA/DX5) cells were plated into 6 well dishes and treated with various concentrations of 6aa and Paclitaxel for 96 h. The number of viable cells from duplicate plates was determined by trypan blue exclusion. B. Soft Agar Assays. MIA-PaCa-2 cells (1.0×10^5) were plated in soft agar containing various concentrations of each compound in triplicates. After three weeks of growth, the plates were stained for 48 h using 0.05% nitroblue tetrazolium solution. Representative plates were photographed using an Olympus stereoscope mounted with a Sony digital camera system (DKC5000, Sony Inc). Tissue Culture and Reagents: […] Cell lines were purchased from ATCC. Cell lines were routinely grown in DMEM or RPM1 (CellGro) supplemented with 10% fetal bovine serum (Atlas) and 1 unit/mL penicillin-streptomycin (Gibco). A number of tumor cell lines were tested using a dose response end point assay system. The cells were grown in either DMEM or RPMI supplemented with 10% fetal bovine serum and 1 unit/mL Penicillin-Streptomycin solution. […] Cell counts were determined from duplicate wells after 96 h of treatment. The total number of viable cells was determined by trypan blue exclusion.

RF48 = test: Tumor cell killing, RF48; assay type: cell-based, human; conditions: RF48, GASTRIC; read-out: Tumor cell killing (IC50) concentration
Text: as §2

[4] = tested on: BT20, DU145, H157 and DLD1 cell lines; test: In vitro cytotoxicity, four human tumor cell lines (SAR discussion); assay type: cell-based
Protocol: A number of tumor cell lines were tested using a dose response end point assay system. The cells were grown in either DMEM or RPMI supplemented with 10% fetal bovine serum and 1 unit/mL Penicillin-Streptomycin solution. The tumor cells were plated into 6 well dishes at a cell density of 1.0×10^5 cells/mL/well and compounds were added 24 h later at various concentrations. Cell counts were determined from duplicate wells after 96 h of treatment. The total number of viable cells was determined by trypan blue exclusion.
Following the synthesis of this group of compounds, their in vitro cytotoxicity was assessed using four different human tumor cell lines derived from human breast (BT20), prostate (DU145), lung (H157) and colorectal (DLD1) cancers. […] In a majority of the compounds described here, a methoxy group was kept constant at the 4th position on the aromatic ring of the benzyl moiety.

MOLT-4 = test: Tumor cell killing, MOLT-4; assay type: cell-based, human; conditions: MOLT-4, T-lymphoblastic: ALL; read-out: Tumor cell killing (IC50) concentration
U87 = test: Tumor cell killing, U87; assay type: cell-based, human; conditions: U87, GLIOBLASTOMA; read-out: Tumor cell killing (IC50) concentration
Text: as §2

MCF-7 = test: Tumor cell killing, MCF-7; assay type: cell-based, human; conditions: MCF-7, BREAST (ER+); read-out: Tumor cell killing (IC50) concentration
Text: as §2

OV-CAR-3 = test: Tumor cell killing, OV-CAR-3; assay type: cell-based, human; conditions: OV-CAR-3, OVARIAN; read-out: Tumor cell killing (IC50) concentration
Text: as §2

MIA-PaCa2 = test: Tumor cell killing, MIA-PaCa2; assay type: cell-based, human; conditions: MIA-PaCa2, PANCREATIC; read-out: Tumor cell killing (IC50) concentration
Text: as §2

[5] = tested on: DU145 (human prostate tumor cell line); test: Cytotoxicity assay (trypan blue exclusion, 96 h), DU145; assay type: cell-based
Text: as §2

CEM = test: Tumor cell killing, CEM; assay type: cell-based, human; conditions: read-out: Tumor cell killing (IC50) concentration
HCT-15 = test: Tumor cell killing, HCT-15; assay type: cell-based, human; conditions: HCT-15, COLO-RECTAL; read-out: Tumor cell killing (IC50) concentration
Text: as §2

[6] = tested on: panel of 60 human cancer cell-lines; test: NCI Developmental Therapeutics Program panel of 60 human cancer cell-lines; assay type: cell-based; conditions: at nanomolar concentrations, including drug-resistant cell-lines
H187 = test: Tumor cell killing, H187; assay type: cell-based, human; conditions: H187, SCLC; read-out: Tumor cell killing (IC50) concentration
Text: as §2

[7] = tested on: BT20 (human breast tumor cell line); test: Cytotoxicity assay (trypan blue exclusion, 96 h), BT20; assay type: cell-based; conditions: BT20, 96 h treatment
Text: as §2

Daudi = test: Tumor cell killing, Daudi; assay type: cell-based, human; conditions: Burkitt's Lymphoma (B-cell), read-out: Tumor cell killing (IC50) concentration
Raji = test: Tumor cell killing, Raji; assay type: cell-based, human; conditions: Burkitt's Lymphoma (B-cell), read-out: Tumor cell killing (IC50) concentration
MES-SA = test: Tumor cell killing, MES-SA (parental uterine sarcoma); assay type: cell-based, human; conditions: MES-SA, SARCOMA; read-out: Tumor cell killing (IC50) concentration
Protocol: as §1

SK-MEL-28 = test: Tumor cell killing, SK-MEL-28; assay type: cell-based, human; conditions: SK-MEL-28, MELANOMA; read-out: Tumor cell killing (IC50) concentration
Text: as §2

AGS = test: Tumor cell killing, AGS; assay type: cell-based, human; conditions: GASTRIC, read-out: Tumor cell killing (IC50) concentration
Text: as §2

T47D = test: Tumor cell killing, T47D; assay type: cell-based, human; conditions: BREAST (ER+), read-out: Tumor cell killing (IC50) concentration
Text: as §2

[8] = DLD1, 96 h treatment, read-out: DLD1 IC50
[9] = DLD-1, COLO-RECTAL, Table 2, read-out: Tumor cell killing (IC50) concentration
[10] = H157, 96 h treatment, read-out: H157 IC50
[11] = H157, NSCLC, Table 2, read-out: Tumor cell killing (IC50) concentration
[12] = DU145, 96 h treatment, read-out: DU145 IC50
[13] = DU145, PROSTATE (AR−), Table 2, read-out: Tumor cell killing (IC50) concentration
[14] = LEUKEMIC (second listing, r39, parental of CEM/C2)

SMILES	effect on mantle cell lymphoma cell lines [1]	IC50 [2, 8] [nM]	IC50 [2, 9] [nM]	IC50 [3, 10] [nM]	IC50 [3, 11] [nM]	IC50 (Namalwa) [nM]	IC50 (CEM/C2) [nM]	IC50 (MES-SA/DX5) [nM]	IC50 (RF48) [nM]	IC50 (MOLT-4) [nM]	IC50 (U87) [nM]	IC50 (MCF-7) [nM]	IC50 (OV-CAR-3) [nM]	IC50 (MIA-PaCa2) [nM]	IC50 [5, 12] [nM]	IC50 [5, 13] [nM]	IC50 (CEM; LEUKEMIC (first listing, r26)) [nM]	IC50 (CEM; [14]) [nM]	IC50 (HCT-15) [nM]	growth inhibition of NCI 60 cell-line panel [6]	also measured
COc1cc(OC)c(/C=C/S(=O)(=O)Cc2ccc(OC)c(O)c2)c(OC)c1 [6aa, (E)-2,4,6-Trimethoxystyryl-3-Hydroxy-4-Methoxybenzyl Sulfone]	altered the growth and cell cycle status	3	8	4	7	6	10	5	5	5	7	4	6	4	3	7	9	10	8	inhibited the growth of all of the tested cell lines	sensitivity of parental and MDR positive cell lines to cell killing activity (MES-SA/DX5; MES-SA and MES-SA/DX5): equally sensitive; cytotoxic activity, SAR statement ([4]; four human tumor cell lines): best activity in the entire series; fold more active than 6s ([4]; in all four cell lines): 8 to 10 fold; IC50 (H187): 7 nM; IC50 [7]: 10 nM; IC50 (Daudi): 7 nM; IC50 (Raji): 4 nM; IC50 (MES-SA): 6 nM; IC50 (SK-MEL-28): 7 nM; IC50 (AGS): 7 nM; IC50 (T47D): 6 nM
COc1ccc(CS(=O)(=O)/C=C/c2c(OC)cc(OC)cc2OC)cc1 [6s, (E)-2,4,6-Trimethoxystyryl-4-Methoxybenzyl sulfone]	altered the growth and cell cycle status	40	40	30	30	15	10	10	10	9	40	3	8	8	25	25	30	30	20	inhibited the growth of all of the tested cell lines	fold more active than 6m ([4]; cell-killing assays): 20 fold; IC50 (H187): 15 nM; IC50 [7]: 20 nM; IC50 (Daudi): 8 nM; IC50 (Raji): 9 nM; IC50 (MES-SA): 10 nM; IC50 (SK-MEL-28): 40 nM; IC50 (AGS): 20 nM; IC50 (T47D): 25 nM
